Assay results published in the NIST ThermoML archive (doi:10.1021/acs.jced.5b00259).

Assay: xn = mol fraction of the nth substance listed
Conditions: 100 kPa, Liquid

CC[NH+]=C(N(C)C)N(C)C.O=S(=O)([N-]S(=O)(=O)C(F)(F)F)C(F)(F)F + CCO
Conditions	mass density [kg/m3]	viscosity [mPa·s]
293.15 K, x1 = 0.1006	1023.01	2.873
293.15 K, x1 = 0.2004	1148.25	5.27
293.15 K, x1 = 0.3001	1225.91	8.21
293.15 K, x1 = 0.4005	1278.7	13.14
293.15 K, x1 = 0.5018	1316.97	19.52
293.15 K, x1 = 0.6011	1345.48	27.48
293.15 K, x1 = 0.6999	1367.71	36.42
293.15 K, x1 = 0.802	1386.71	47.47
293.15 K, x1 = 0.892	1400.66	59.17
293.15 K, x1 = 1	1414.89	74.61
298.15 K, x1 = 0.1006	1018.29	2.557
298.15 K, x1 = 0.2004	1143.37	4.596
298.15 K, x1 = 0.3001	1221.07	7.081
298.15 K, x1 = 0.4005	1273.82	11.13
298.15 K, x1 = 0.5018	1312.1	16.32
298.15 K, x1 = 0.6011	1340.6	22.71
298.15 K, x1 = 0.6999	1362.79	29.85
298.15 K, x1 = 0.802	1381.82	38.34
298.15 K, x1 = 0.892	1395.79	47.22
298.15 K, x1 = 1	1410.03	58.86
303.15 K, x1 = 0.1006	1013.56	2.289
303.15 K, x1 = 0.2004	1138.51	4.049
303.15 K, x1 = 0.3001	1216.29	6.157
303.15 K, x1 = 0.4005	1268.94	9.534
303.15 K, x1 = 0.5018	1307.24	13.8
303.15 K, x1 = 0.6011	1335.71	19.1
303.15 K, x1 = 0.6999	1357.94	24.85
303.15 K, x1 = 0.802	1376.95	31.52
303.15 K, x1 = 0.892	1390.94	38.37
303.15 K, x1 = 1	1405.19	47.27
308.15 K, x1 = 0.1006	1008.82	2.058
308.15 K, x1 = 0.2004	1133.65	3.587
308.15 K, x1 = 0.3001	1211.51	5.391
308.15 K, x1 = 0.4005	1264.09	8.252
308.15 K, x1 = 0.5018	1302.36	11.95
308.15 K, x1 = 0.6011	1330.83	16.25
308.15 K, x1 = 0.6999	1353.07	20.96
308.15 K, x1 = 0.802	1372.11	26.35
308.15 K, x1 = 0.892	1386.12	31.73
308.15 K, x1 = 1	1400.38	38.71
313.15 K, x1 = 0.1006	1004.07	1.861
313.15 K, x1 = 0.2004	1128.85	3.213
313.15 K, x1 = 0.3001	1206.71	4.757
313.15 K, x1 = 0.4005	1259.25	7.206
313.15 K, x1 = 0.5018	1297.45	10.32
313.15 K, x1 = 0.6011	1325.97	13.99
313.15 K, x1 = 0.6999	1348.22	17.94
313.15 K, x1 = 0.802	1367.28	22.3
313.15 K, x1 = 0.892	1381.31	26.65
313.15 K, x1 = 1	1395.59	32.2
318.15 K, x1 = 0.1006	999.26	1.689
318.15 K, x1 = 0.2004	1124.03	2.884
318.15 K, x1 = 0.3001	1201.81	4.227
318.15 K, x1 = 0.4005	1254.43	6.344
318.15 K, x1 = 0.5018	1292.57	8.977
318.15 K, x1 = 0.6011	1321.11	12.15
318.15 K, x1 = 0.6999	1343.4	15.52
318.15 K, x1 = 0.802	1362.45	19.11
318.15 K, x1 = 0.892	1376.52	22.55
318.15 K, x1 = 1	1390.8	27.09
323.15 K, x1 = 0.1006	994.44	1.515
323.15 K, x1 = 0.2004	1119.21	2.606
323.15 K, x1 = 0.3001	1197.01	3.78
323.15 K, x1 = 0.4005	1249.62	5.627
323.15 K, x1 = 0.5018	1287.74	7.837
323.15 K, x1 = 0.6011	1316.28	10.65
323.15 K, x1 = 0.6999	1338.59	13.58
323.15 K, x1 = 0.802	1357.63	16.54
323.15 K, x1 = 0.892	1371.74	19.32
323.15 K, x1 = 1	1386.03	23.14

CCOS(=O)(=O)[O-].CC[NH+]=C(N(C)C)N(C)C [2-ethyl-1,1,3,3-tetramethylguanidinium ethyl sulfate] + CCCO
Conditions	mass density [kg/m3]	viscosity [mPa·s]
293.15 K, x1 = 0.0997	898.6	4.426
293.15 K, x1 = 0.2003	964.92	8.127
293.15 K, x1 = 0.3066	1016.48	16.78
293.15 K, x1 = 0.3996	1051.52	27.09
293.15 K, x1 = 0.5016	1082.4	48.51
293.15 K, x1 = 0.5989	1106.32	82.64
293.15 K, x1 = 0.6984	1126.59	134.4
293.15 K, x1 = 0.7999	1144.02	243.1
293.15 K, x1 = 0.8981	1158.38	405.5
293.15 K, x1 = 1	1170.76	673.4
298.15 K, x1 = 0.0997	894.7	3.9
298.15 K, x1 = 0.2003	961.16	7.044
298.15 K, x1 = 0.3066	1012.78	13.97
298.15 K, x1 = 0.3996	1047.86	22.36
298.15 K, x1 = 0.5016	1078.78	38.84
298.15 K, x1 = 0.5989	1102.73	63.88
298.15 K, x1 = 0.6984	1123.01	100.3
298.15 K, x1 = 0.7999	1140.47	174.3
298.15 K, x1 = 0.8981	1154.86	278.2
298.15 K, x1 = 1	1167.24	441.5
303.15 K, x1 = 0.0997	890.9	3.455
303.15 K, x1 = 0.2003	957.41	6.152
303.15 K, x1 = 0.3066	1009.1	12.3
303.15 K, x1 = 0.3996	1044.26	18.74
303.15 K, x1 = 0.5016	1075.17	31.58
303.15 K, x1 = 0.5989	1099.15	50.4
303.15 K, x1 = 0.6984	1119.44	76.66
303.15 K, x1 = 0.7999	1136.93	128.5
303.15 K, x1 = 0.8981	1151.36	197.5
303.15 K, x1 = 1	1163.76	302.5
308.15 K, x1 = 0.0997	887.03	3.077
308.15 K, x1 = 0.2003	953.65	5.412
308.15 K, x1 = 0.3066	1005.42	10.72
308.15 K, x1 = 0.3996	1040.62	15.88
308.15 K, x1 = 0.5016	1071.58	26.07
308.15 K, x1 = 0.5989	1095.58	40.53
308.15 K, x1 = 0.6984	1115.89	59.78
308.15 K, x1 = 0.7999	1133.41	97.5
308.15 K, x1 = 0.8981	1147.85	145.3
308.15 K, x1 = 1	1160.28	214.6
313.15 K, x1 = 0.0997	883.16	2.751
313.15 K, x1 = 0.2003	949.88	4.79
313.15 K, x1 = 0.3066	1001.73	9.145
313.15 K, x1 = 0.3996	1036.98	13.59
313.15 K, x1 = 0.5016	1068	21.82
313.15 K, x1 = 0.5989	1092.03	33.1
313.15 K, x1 = 0.6984	1112.37	47.59
313.15 K, x1 = 0.7999	1129.9	75.47
313.15 K, x1 = 0.8981	1144.35	110
313.15 K, x1 = 1	1156.8	157.2
318.15 K, x1 = 0.0997	879.26	2.471
318.15 K, x1 = 0.2003	946.11	4.266
318.15 K, x1 = 0.3066	998.04	7.69
318.15 K, x1 = 0.3996	1033.37	11.73
318.15 K, x1 = 0.5016	1064.43	18.48
318.15 K, x1 = 0.5989	1088.5	27.42
318.15 K, x1 = 0.6984	1108.86	38.53
318.15 K, x1 = 0.7999	1126.4	59.7
318.15 K, x1 = 0.8981	1140.87	84.19
318.15 K, x1 = 1	1153.33	118.3
323.15 K, x1 = 0.0997	875.35	2.228
323.15 K, x1 = 0.2003	942.33	3.819
323.15 K, x1 = 0.3066	994.35	6.777
323.15 K, x1 = 0.3996	1029.73	10.2
323.15 K, x1 = 0.5016	1060.87	15.79
323.15 K, x1 = 0.5989	1084.97	23.01
323.15 K, x1 = 0.6984	1105.36	31.66
323.15 K, x1 = 0.7999	1122.93	47.99
323.15 K, x1 = 0.8981	1137.4	66.48
323.15 K, x1 = 1	1149.87	91.22
